According to patent US10913744B2, “LRRK2 inhibitors and methods of making and using the same” (Dana-Farber Cancer Institute, Inc., priority 2015, dated 2021):
Read-outs that look alike come from different tables or passages of the source.

What was measured:
ULK1 = ULK1 (Homo sapiens (Human), UniProt O75385); test: Dundee profiling
DYRK3 = DYRK3 (Homo sapiens (Human), UniProt O43781); test: Dundee profiling
FGF-R1 = FGF-R1 (Homo sapiens (Human), UniProt P11362); test: Dundee profiling
TrkA = TrkA (Homo sapiens (Human), UniProt P04629); test: Dundee profiling
EGFR (L858R, T790M) = EGFR (L858R, T790M) (Homo sapiens (Human), UniProt P00533, L858R/T790M); test: KinomeScan; assay type: binding; settings: 1 uM
TTBK1 = TTBK1 (Homo sapiens (Human), UniProt Q5TCY1); test: Dundee profiling
CAMKKb = CAMKKb (Homo sapiens (Human), UniProt Q96RR4); test: Dundee profiling
PAK2 = PAK2 (Homo sapiens (Human), UniProt Q13177); test: Dundee profiling
Chain of PAK2 (Q13177 whole entry, looked up, species assumed): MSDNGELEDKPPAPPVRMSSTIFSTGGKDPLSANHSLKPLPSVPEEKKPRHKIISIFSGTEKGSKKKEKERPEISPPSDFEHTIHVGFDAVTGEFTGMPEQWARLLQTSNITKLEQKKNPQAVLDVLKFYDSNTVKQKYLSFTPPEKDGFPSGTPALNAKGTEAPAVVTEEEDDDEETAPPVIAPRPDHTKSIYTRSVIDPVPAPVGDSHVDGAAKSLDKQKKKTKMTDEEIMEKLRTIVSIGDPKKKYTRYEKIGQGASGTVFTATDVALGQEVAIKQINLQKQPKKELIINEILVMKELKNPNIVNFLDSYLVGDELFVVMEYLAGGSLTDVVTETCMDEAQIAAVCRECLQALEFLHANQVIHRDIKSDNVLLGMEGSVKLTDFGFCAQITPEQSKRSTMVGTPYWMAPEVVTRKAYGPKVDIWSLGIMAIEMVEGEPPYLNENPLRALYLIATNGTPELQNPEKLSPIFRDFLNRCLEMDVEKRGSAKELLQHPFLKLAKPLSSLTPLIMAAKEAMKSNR

[1] = target: EGFR (L747-S752del, P753S) (Homo sapiens (Human), UniProt P00533, DEL747-752/P753S); test: KinomeScan; assay type: binding; settings: 1 uM
ERK1 = ERK1 (Homo sapiens (Human), UniProt P27361); test: Dundee profiling
LRRK2[G2019S] = LRRK2[G2019S] (Homo sapiens (Human), UniProt Q5S007, G2019S); test: LRRK2 enzyme kinase assay, G2019S; assay type: biochemical; settings: Table 1; ATP at Km 112 μm
CLK2 = CLK2 (Homo sapiens (Human), UniProt P49760); test: Dundee profiling
ASK1 = ASK1 (Homo sapiens (Human), UniProt Q99683); test: Dundee profiling
PLK1 = PLK1 (Homo sapiens (Human), UniProt P53350); test: Dundee profiling
Chain of PLK1 (P53350 whole entry, looked up, species assumed): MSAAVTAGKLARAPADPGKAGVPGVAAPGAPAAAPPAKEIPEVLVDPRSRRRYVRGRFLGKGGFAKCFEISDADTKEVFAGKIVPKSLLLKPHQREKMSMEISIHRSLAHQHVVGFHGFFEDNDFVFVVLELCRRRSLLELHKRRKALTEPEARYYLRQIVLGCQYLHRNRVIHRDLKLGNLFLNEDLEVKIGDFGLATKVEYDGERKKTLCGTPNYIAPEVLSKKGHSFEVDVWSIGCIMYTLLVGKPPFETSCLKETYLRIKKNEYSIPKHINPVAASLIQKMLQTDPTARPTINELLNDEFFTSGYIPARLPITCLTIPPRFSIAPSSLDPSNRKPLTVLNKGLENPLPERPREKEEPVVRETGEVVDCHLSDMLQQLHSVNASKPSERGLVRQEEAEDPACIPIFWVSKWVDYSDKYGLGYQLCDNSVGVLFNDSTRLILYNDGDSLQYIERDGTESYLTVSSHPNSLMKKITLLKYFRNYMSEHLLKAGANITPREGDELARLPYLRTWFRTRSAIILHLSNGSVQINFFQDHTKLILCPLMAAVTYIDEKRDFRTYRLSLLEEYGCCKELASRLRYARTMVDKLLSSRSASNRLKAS

MARK4 = MARK4 (Homo sapiens (Human), UniProt Q96L34); test: Dundee profiling
[2] = target: RSK4 (Kin.Dom.2-C-terminal) (Homo sapiens (Human), UniProt Q9UK32); test: KinomeScan; assay type: binding; settings: 1 uM
EGFR (S752-I759del) = EGFR (S752-I759del) (Homo sapiens (Human), UniProt P00533, DEL752-759); test: KinomeScan; assay type: binding; settings: 1 uM
MAP4K5 = MAP4K5 (Homo sapiens (Human), UniProt Q9Y4K4); test: Dundee profiling
MLK1 = MLK1 (Homo sapiens (Human), UniProt P80192); test: Dundee profiling
JAK2 = JAK2 (Homo sapiens (Human), UniProt O60674); test: Dundee profiling
LZK = LZK (Homo sapiens (Human), UniProt O43283); test: KinomeScan; assay type: binding; settings: 1 uM
EPH-B3 = EPH-B3 (Homo sapiens (Human), UniProt P54753); test: Dundee profiling
Chain of EPH-B3 (P54753 34-998, species assumed): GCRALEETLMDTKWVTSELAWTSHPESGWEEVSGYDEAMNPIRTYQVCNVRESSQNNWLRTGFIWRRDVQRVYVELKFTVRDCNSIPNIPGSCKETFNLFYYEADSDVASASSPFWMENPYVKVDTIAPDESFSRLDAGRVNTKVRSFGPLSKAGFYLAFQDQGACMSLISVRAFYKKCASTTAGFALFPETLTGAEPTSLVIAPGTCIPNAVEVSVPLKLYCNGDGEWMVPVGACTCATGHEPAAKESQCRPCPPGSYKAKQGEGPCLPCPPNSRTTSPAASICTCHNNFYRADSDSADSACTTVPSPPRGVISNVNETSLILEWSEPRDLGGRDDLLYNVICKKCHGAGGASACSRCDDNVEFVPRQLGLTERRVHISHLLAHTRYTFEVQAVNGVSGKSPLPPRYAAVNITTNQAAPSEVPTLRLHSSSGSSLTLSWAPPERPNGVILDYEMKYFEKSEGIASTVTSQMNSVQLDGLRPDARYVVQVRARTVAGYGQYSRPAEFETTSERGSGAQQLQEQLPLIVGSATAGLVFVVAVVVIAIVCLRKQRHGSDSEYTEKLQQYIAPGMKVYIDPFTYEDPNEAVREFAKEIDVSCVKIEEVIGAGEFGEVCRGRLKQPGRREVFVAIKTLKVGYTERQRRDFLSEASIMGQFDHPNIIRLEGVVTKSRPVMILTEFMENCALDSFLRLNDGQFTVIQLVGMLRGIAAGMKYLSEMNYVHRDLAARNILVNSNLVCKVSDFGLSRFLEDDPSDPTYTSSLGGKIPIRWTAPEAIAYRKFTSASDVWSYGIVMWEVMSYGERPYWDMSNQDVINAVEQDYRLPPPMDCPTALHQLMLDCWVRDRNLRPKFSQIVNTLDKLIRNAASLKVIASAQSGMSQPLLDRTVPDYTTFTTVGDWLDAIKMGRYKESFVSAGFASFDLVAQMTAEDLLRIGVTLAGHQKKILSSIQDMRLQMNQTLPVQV

MNK2 = MNK2 (Homo sapiens (Human), UniProt Q9HBH9); test: Dundee profiling
PLK2 = PLK2 (Homo sapiens (Human), UniProt Q9NYY3); test: KinomeScan; assay type: binding; settings: 1 uM
EPH-A2 = EPH-A2 (Homo sapiens (Human), UniProt P29317); test: Dundee profiling
[3] = target: TYK2 (JH1domain-catalytic) (Homo sapiens (Human), UniProt P29597); test: KinomeScan; assay type: binding; settings: 1 uM
CIT = CIT (Homo sapiens (Human), UniProt O14578); test: KinomeScan; assay type: binding; settings: 1 uM
ERK8 = ERK8 (Homo sapiens (Human), UniProt Q8TD08); test: Dundee profiling
PDGFRA = PDGFRA (Homo sapiens (Human), UniProt P16234); test: Dundee profiling
SIK = SIK (Homo sapiens (Human), UniProt P57059); test: KinomeScan; assay type: binding; settings: 1 uM
LRRK2 = LRRK2 (Mus musculus (Mouse), UniProt Q5S006); test: Pharmacodynamic study, LRRK2 Ser910/Ser935 phosphorylation in mouse kidney, spleen and brain; assay type: in vivo
Chain of LRRK2 (Q5S006 whole entry, looked up): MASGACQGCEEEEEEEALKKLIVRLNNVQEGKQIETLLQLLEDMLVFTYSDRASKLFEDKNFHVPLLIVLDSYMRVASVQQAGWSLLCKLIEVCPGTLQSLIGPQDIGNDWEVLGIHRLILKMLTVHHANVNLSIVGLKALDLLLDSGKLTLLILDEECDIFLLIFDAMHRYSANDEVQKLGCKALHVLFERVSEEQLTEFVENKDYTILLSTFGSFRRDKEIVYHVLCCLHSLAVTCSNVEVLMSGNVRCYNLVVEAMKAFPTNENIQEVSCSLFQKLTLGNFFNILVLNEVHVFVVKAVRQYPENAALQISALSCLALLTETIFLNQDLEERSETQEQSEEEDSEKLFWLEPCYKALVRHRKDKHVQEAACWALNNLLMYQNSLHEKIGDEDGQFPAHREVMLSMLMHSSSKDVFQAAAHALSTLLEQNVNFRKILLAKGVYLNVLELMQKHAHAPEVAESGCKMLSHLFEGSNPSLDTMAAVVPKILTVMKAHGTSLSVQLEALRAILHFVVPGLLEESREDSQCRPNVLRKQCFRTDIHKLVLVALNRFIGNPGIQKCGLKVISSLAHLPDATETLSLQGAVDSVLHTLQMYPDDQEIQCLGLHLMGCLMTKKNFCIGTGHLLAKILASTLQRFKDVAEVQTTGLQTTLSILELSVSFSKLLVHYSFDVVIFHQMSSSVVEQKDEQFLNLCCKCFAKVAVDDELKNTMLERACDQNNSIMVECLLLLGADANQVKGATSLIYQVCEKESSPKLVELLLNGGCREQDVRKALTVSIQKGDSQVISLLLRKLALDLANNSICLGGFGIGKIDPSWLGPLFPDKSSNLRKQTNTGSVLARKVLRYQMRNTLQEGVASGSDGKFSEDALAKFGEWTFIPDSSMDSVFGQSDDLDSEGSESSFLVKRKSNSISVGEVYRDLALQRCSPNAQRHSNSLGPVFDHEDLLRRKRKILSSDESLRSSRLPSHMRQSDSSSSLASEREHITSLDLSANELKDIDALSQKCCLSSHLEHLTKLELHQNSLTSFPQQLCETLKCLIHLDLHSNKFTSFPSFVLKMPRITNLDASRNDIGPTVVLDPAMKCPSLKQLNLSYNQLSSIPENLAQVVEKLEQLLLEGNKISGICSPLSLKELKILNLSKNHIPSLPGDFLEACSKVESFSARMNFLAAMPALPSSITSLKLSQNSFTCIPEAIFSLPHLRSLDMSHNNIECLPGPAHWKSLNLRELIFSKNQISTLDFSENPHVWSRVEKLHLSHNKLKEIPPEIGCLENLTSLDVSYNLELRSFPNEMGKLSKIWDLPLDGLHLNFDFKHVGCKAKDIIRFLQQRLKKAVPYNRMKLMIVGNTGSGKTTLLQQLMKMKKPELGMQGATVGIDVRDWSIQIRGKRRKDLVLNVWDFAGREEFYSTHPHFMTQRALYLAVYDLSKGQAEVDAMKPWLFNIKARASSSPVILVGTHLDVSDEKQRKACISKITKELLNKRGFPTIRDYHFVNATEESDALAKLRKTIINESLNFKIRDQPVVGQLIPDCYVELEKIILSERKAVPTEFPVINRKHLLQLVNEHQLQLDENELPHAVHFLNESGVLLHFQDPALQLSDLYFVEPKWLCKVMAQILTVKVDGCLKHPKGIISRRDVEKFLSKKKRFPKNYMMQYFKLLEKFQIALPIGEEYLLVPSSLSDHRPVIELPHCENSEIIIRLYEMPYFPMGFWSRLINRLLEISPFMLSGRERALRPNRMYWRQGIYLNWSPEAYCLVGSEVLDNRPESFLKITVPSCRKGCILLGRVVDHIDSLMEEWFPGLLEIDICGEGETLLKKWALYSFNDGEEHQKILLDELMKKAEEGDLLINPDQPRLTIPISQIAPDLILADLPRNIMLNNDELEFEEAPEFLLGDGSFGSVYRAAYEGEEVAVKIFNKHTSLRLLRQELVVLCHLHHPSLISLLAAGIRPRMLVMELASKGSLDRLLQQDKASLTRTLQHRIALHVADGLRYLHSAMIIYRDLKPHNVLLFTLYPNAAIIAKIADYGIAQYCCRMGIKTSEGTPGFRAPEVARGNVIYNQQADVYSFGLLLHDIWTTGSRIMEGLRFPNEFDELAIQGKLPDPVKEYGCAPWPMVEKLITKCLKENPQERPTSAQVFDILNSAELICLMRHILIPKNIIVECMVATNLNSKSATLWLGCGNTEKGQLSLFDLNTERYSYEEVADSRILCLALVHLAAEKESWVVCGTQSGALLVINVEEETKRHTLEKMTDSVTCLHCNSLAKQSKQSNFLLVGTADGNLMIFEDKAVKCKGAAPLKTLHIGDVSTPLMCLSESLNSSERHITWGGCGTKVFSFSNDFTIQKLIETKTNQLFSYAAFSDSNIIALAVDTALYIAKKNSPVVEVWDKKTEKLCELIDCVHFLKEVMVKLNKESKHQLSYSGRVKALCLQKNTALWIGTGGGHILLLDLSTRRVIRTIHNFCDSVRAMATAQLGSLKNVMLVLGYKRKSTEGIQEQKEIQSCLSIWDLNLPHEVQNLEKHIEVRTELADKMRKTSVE

JNK1 = JNK1 (Homo sapiens (Human), UniProt P45983); test: Dundee profiling
Chain of JNK1 (P45983 whole entry, species assumed): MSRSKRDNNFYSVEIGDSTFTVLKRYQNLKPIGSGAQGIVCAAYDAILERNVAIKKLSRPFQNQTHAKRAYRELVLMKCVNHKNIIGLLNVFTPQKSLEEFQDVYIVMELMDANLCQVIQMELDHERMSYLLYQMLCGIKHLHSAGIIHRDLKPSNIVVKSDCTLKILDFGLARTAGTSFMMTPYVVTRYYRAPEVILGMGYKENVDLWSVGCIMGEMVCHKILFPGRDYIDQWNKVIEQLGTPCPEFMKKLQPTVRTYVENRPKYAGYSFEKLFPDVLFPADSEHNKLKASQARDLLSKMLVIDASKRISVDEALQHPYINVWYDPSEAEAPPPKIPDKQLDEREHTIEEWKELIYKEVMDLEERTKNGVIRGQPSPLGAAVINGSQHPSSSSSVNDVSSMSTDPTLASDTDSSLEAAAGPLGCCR

ABL = ABL (Homo sapiens (Human), UniProt P00519); test: Dundee profiling
[4] = read-out: percent remaining enzymatic activity
[5] = read-out: percent remaining enzymatic activity, I1, 1 μM
[6] = read-out: percent remaining enzymatic activity, I10

What does the source list for `CNc1nc(Nc2ccc(C(=O)N3CCOCC3)cc2OC)nc2[nH]cc(Cl)c12` [Compound 18, (4-((5-chloro-4-(methylamino)-7H-pyrrolo[2,3-d]pyrimidin-2-yl)amino)-3-methoxyphenyl)(morpholino)methanone]?
percent remaining enzymatic activity (ULK1; I10): 95%; remaining activity at 1 µM (ULK1; [4]): 103%; remaining activity at 1 µM (DYRK3; [5]): 74%; remaining activity at 1 µM (DYRK3; [6]): 30%; remaining activity at 1 µM (FGF-R1; [5]): 94%; remaining activity at 1 µM (FGF-R1; [6]): 102%; remaining activity at 1 µM (TrkA; [5]): 85%; remaining activity at 1 µM (TrkA; [6]): 84%; KinomeScan value (EGFR (L858R, T790M)): 100; remaining activity at 1 µM (TTBK1; [5]): 103%; remaining activity at 1 µM (TTBK1; [6]): 98%; remaining activity at 1 µM (CAMKKb; [5]): 50%; remaining activity at 1 µM (CAMKKb; [6]): 16%; remaining activity at 1 µM (PAK2; [5]): 110%; remaining activity at 1 µM (PAK2; [6]): 102%; KinomeScan value [1]: 94; remaining activity at 1 µM (ERK1; [5]): 107%; remaining activity at 1 µM (ERK1; [6]): 68%; IC50 (LRRK2[G2019S]): 2.2 nM; remaining activity at 1 µM (CLK2; [5]): 13%; remaining activity at 1 µM (CLK2; [6]): 2%; remaining activity at 1 µM (ASK1; [5]): 56%; remaining activity at 1 µM (ASK1; [6]): 10%; remaining activity at 1 µM (PLK1; [5]): 62%; remaining activity at 1 µM (PLK1; [6]): 13%; percent remaining enzymatic activity (MARK4; I10): 98%; remaining activity at 1 µM (MARK4; [4]): 109%; KinomeScan value [2]: 90; KinomeScan value (EGFR (S752-I759del)): 97; remaining activity at 1 µM (MAP4K5; [5]): 110%; remaining activity at 1 µM (MAP4K5; [6]): 92%; remaining activity at 1 µM (MLK1; [5]): 81%; remaining activity at 1 µM (MLK1; [6]): 38%; percent remaining enzymatic activity (JAK2; I10): 97%; remaining activity at 1 µM (JAK2; [4]): 99%; KinomeScan value (LZK): 92; percent remaining enzymatic activity (EPH-B3; I1, 1 μM): 92%; remaining activity at 1 µM (EPH-B3; [4]): 92%; remaining activity at 1 µM (MNK2; [5]): 75%; remaining activity at 1 µM (MNK2; [6]): 25%; KinomeScan value (PLK2): 100; remaining activity at 1 µM (EPH-A2; [5]): 104%; remaining activity at 1 µM (EPH-A2; [6]): 101%; KinomeScan value [3]: 99; KinomeScan value (CIT): 92; remaining activity at 1 µM (ERK8; [5]): 108%; remaining activity at 1 µM (ERK8; [6]): 71%; remaining activity at 1 µM (PDGFRA; [5]): 109%; remaining activity at 1 µM (PDGFRA; [6]): 89%; KinomeScan value (SIK): 94; inhibition of LRRK2 Ser935 phosphorylation in brain (LRRK2; 10 mg/kg): only partial inhibition in brain; inhibition of LRRK2 Ser935 phosphorylation in tissues (LRRK2; 30 mg/kg): near complete inhibition in all tissues; dephosphorylation of Ser935 of LRRK2 in kidney, spleen and brain (LRRK2; 100 mg/kg, intraperitoneal): near complete dephosphorylation of Ser935 of LRRK2; percent remaining enzymatic activity (JNK1; I10): 6%; remaining activity at 1 µM (JNK1; [4]): 38%; remaining activity at 1 µM (ABL; [5]): 106%; remaining activity at 1 µM (ABL; [6]): 103%
